In brackets after ≈: the same amount, converted by molar mass.
What was measured:
Type in all cases: functional
[1] = test system: Mycobacterium tuberculosis; experiment: Antitubercular activity against Mycobacterium tuberculosis H37Rv after 21 days by Lowenstein-Jensen method; conditions: 504 h
Aspergillus niger = experiment: Antifungal activity against Aspergillus niger MTCC 282 after overnight incubation by broth microdilution method
Candida albicans = experiment: Antifungal activity against Candida albicans MTCC 227 after overnight incubation by broth microdilution method
Salmonella typhi = experiment: Antibacterial activity against Salmonella enterica subsp. enterica serovar Typhi MTCC 98 after overnight incubation by broth microdilution method
Escherichia coli = experiment: Antibacterial activity against Escherichia coli MTCC 443 after overnight incubation by broth microdilution method
Bacillus subtilis = experiment: Antibacterial activity against Bacillus subtilis MTCC 441 after overnight incubation by broth microdilution method
Staphylococcus aureus = experiment: Antibacterial activity against Staphylococcus aureus MTCC 96 after overnight incubation by broth microdilution method

| Molecule | MIC90 [1] [µg/mL] | MIC99 (Aspergillus niger) [µg/mL] | MIC99 (Candida albicans) [µg/mL] | MIC99 (Salmonella typhi) [µg/mL] | MIC99 (Escherichia coli) [µg/mL] | MIC99 (Bacillus subtilis) [µg/mL] | MIC99 (Staphylococcus aureus) [µg/mL] |
| --- | --- | --- | --- | --- | --- | --- | --- |
| O=C(c1ccc(-c2cc3ccccc3oc2=O)nc1)c1cc(Cl)ccc1O | 250 (≈ 662 µM) | > 1000 | 500 (≈ 1320 µM) | 250 (≈ 662 µM) | 250 (≈ 662 µM) | 200 (≈ 529 µM) | 250 (≈ 662 µM) |
| O=C(c1ccc(-c2cc3c(ccc4ccccc43)oc2=O)nc1)c1cc(Cl)ccc1O | 500 (≈ 1170 µM) | 100 (≈ 234 µM) | 1000 (≈ 2340 µM) | 250 (≈ 584 µM) | 250 (≈ 584 µM) | 125 (≈ 292 µM) | 100 (≈ 234 µM) |
| COc1cccc2cc(-c3ccc(C(=O)c4cc(Cl)ccc4O)cn3)c(=O)oc12 | 500 (≈ 1230 µM) | > 1000 | > 1000 | 200 (≈ 490 µM) | 125 (≈ 307 µM) | 200 (≈ 490 µM) | 200 (≈ 490 µM) |
| COC1=CC(=O)C[C@@H](C)[C@]12Oc1c(Cl)c(OC)cc(OC)c1C2=O [GRISEOFULVIN] | – | 100 (≈ 283 µM) | 500 (≈ 1420 µM) | – | – | – | – |
| NYSTATIN | – | 100 | 100 | – | – | – | – |
| COc1cccc2cc(-c3ccc(C(=O)c4cc(C)ccc4O)cn3)c(=O)oc12 | 62.5 (≈ 161 µM) | 500 (≈ 1290 µM) | 1000 (≈ 2580 µM) | 100 (≈ 258 µM) | 100 (≈ 258 µM) | 250 (≈ 645 µM) | 250 (≈ 645 µM) |
| O=C(c1ccc(-c2cc3c(ccc4ccccc43)oc2=O)nc1)c1ccccc1O | 250 (≈ 635 µM) | 500 (≈ 1270 µM) | 250 (≈ 635 µM) | 250 (≈ 635 µM) | 200 (≈ 508 µM) | 100 (≈ 254 µM) | 100 (≈ 254 µM) |
| Cc1ccc(O)c(C(=O)c2ccc(-c3cc4c(ccc5ccccc54)oc3=O)nc2)c1 | 1000 (≈ 2450 µM) | 1000 (≈ 2450 µM) | 500 (≈ 1230 µM) | 250 (≈ 614 µM) | 200 (≈ 491 µM) | 100 (≈ 245 µM) | 125 (≈ 307 µM) |
| O=C(c1ccc(-c2cc3cc(Br)ccc3oc2=O)nc1)c1ccccc1O | 250 (≈ 592 µM) | > 1000 | 200 (≈ 474 µM) | 125 (≈ 296 µM) | 50 (≈ 118 µM) | 100 (≈ 237 µM) | 200 (≈ 474 µM) |
| Cc1ccc(O)c(C(=O)c2ccc(-c3cc4cc(Br)ccc4oc3=O)nc2)c1 | 100 (≈ 229 µM) | 500 (≈ 1150 µM) | 500 (≈ 1150 µM) | 100 (≈ 229 µM) | 100 (≈ 229 µM) | 500 (≈ 1150 µM) | 500 (≈ 1150 µM) |
| O=C(c1ccc(-c2cc3cc(Br)ccc3oc2=O)nc1)c1cc(Cl)ccc1O | 1000 (≈ 2190 µM) | > 1000 | 100 (≈ 219 µM) | 100 (≈ 219 µM) | 62.5 (≈ 137 µM) | 100 (≈ 219 µM) | 62.5 (≈ 137 µM) |
| COc1cccc2cc(-c3ccc(C(=O)c4ccccc4O)cn3)c(=O)oc12 | 500 (≈ 1340 µM) | > 1000 | 1000 (≈ 2680 µM) | 250 (≈ 670 µM) | 200 (≈ 536 µM) | 200 (≈ 536 µM) | 500 (≈ 1340 µM) |
| CC1(C)S[C@@H]2[C@H](NC(=O)[C@H](N)c3ccccc3)C(=O)N2[C@H]1C(=O)O [AMPICILLIN] | – | – | – | 100 (≈ 286 µM) | 100 (≈ 286 µM) | 250 (≈ 715 µM) | 250 (≈ 715 µM) |
| Cc1ccc(O)c(C(=O)c2ccc(-c3cc4ccccc4oc3=O)nc2)c1 | 100 (≈ 280 µM) | 1000 (≈ 2800 µM) | 250 (≈ 700 µM) | 200 (≈ 560 µM) | 250 (≈ 700 µM) | 200 (≈ 560 µM) | 100 (≈ 280 µM) |
| O=C(c1ccc(-c2cc3ccccc3oc2=O)nc1)c1ccccc1O | 1000 (≈ 2910 µM) | 1000 (≈ 2910 µM) | 500 (≈ 1460 µM) | 125 (≈ 364 µM) | 100 (≈ 291 µM) | 250 (≈ 728 µM) | 200 (≈ 583 µM) |

From ChEMBL document CHEMBL3045761, “One pot synthesis of some novel coumarins containing 5-(substituted-2-hydroxybenzoyl) pyridine as a new class of antimicrobial and antituberculosis agents” (2013)
